Values joined by “and” are separate entries in the source; they are usually repeats but may differ in a detail not shown here. Identical values can stand only once. “Also recorded” adds a separate entry of the source.
Key:
[1] = system: male Sprague Dawley rats; experiment: Modified Irwin test, definitive GLP study, male rats; format: in vivo, rat
Procedure: Only male rats were utilized in the assay, as no significant sex-specific effects have been noted in prior toxicology studies.
The dose volume for all groups was 20 mL/kg. Observations for the Irwin test were performed pre-dose (on the day of dosing) and at approximately (±5 minutes) 30, 90, 150, and 240 minutes post-dosing. Body temperature was measured and recorded during each Irwin observation period.

[2] = system: monkeys; experiment: Single-dose oral toxicity; format: in vivo, monkey
Procedure: Single doses up to 300-400 mg/kg and 800 mg/kg appeared to be generally well tolerated in monkeys and rats, respectively (one monkey treated with 400 mg/kg died in the 2-week GLP study on Day 1 of dosing). […] In mice, mortality was consistently seen following single doses 150 mg/kg. Preliminary 5-day repeat-dose range-finding studies were conducted in mice, rats and monkeys. The definitive 14-day studies in mouse and monkey yielded generally similar results to those observed in the 5-day studies.

[3] = system: dogs; experiment: Single-dose oral toxicity; format: in vivo, dog
[4] = system: rats trained to self-administer cocaine; details: 10-40 mg/kg i.p., cited from earlier work
[5] = system: dopamine release in the nucleus accumbens shell; details: 40 mg/kg pretreatment, 19 hours beforehand; cited from earlier work
[6] = system: male Sprague-Dawley rats; experiment: Intracranial self-stimulation (ICSS), frequency-rate procedure
[7] = system: 64 neurotransmitter-related binding sites; experiment: In vitro radio-ligand receptor and enzyme assays (panel); details: 100 nM
Procedure: The binding potential of 18-MC with 64 neurotransmitter-related binding sites was evaluated (TABLE 2).

[8] = molecular target: T1, hERG potassium channel (Homo sapiens, UniProt Q12809); experiment: In vitro hERG channel inhibition assay, stably transfected CHO cells, voltage clamp; format: cell-based; details: average of 3 recordings; read-out: IC50, hERG current inhibition
T1 construct: expressed in transfected cells; host or cells: CHO, stably transfected
T1 sequence (Q12809 whole entry): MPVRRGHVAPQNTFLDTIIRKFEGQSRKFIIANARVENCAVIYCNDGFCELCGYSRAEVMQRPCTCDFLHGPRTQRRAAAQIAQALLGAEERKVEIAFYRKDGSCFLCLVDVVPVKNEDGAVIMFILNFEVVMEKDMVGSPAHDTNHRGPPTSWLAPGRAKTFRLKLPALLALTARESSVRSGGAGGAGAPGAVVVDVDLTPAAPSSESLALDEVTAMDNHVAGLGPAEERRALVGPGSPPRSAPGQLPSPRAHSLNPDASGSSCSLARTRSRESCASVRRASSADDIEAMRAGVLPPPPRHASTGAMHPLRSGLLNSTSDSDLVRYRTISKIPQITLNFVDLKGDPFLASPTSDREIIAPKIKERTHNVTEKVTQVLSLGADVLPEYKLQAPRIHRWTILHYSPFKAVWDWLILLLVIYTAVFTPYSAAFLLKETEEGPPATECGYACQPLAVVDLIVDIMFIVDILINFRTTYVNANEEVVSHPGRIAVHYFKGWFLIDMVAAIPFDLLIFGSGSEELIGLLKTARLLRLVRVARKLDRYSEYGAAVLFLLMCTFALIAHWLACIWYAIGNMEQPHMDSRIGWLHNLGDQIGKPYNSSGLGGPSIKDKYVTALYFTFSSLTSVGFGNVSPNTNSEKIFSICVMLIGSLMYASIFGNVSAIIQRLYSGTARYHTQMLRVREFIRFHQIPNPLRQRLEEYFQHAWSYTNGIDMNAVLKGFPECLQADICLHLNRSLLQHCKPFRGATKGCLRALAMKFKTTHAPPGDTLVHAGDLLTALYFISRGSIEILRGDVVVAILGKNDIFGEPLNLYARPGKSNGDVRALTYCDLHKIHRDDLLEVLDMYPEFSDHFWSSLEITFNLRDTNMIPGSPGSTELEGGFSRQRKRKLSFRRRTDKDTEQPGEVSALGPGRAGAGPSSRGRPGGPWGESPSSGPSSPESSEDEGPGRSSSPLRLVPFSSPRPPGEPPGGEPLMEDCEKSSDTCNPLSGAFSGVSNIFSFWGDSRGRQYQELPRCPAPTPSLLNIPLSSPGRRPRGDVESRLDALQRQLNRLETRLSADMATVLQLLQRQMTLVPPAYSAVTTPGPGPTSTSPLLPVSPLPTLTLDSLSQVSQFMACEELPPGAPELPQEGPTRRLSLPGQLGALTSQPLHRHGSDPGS
Procedure: The potential for 18-MC to inhibit the hERG potassium channel was evaluated in a stably transfected Chinese Hamster Ovary (CHO) cell line expressing hERG mRNA (FIG. 12). […] Cells were voltage clamped at a holding potential of −80 mV. The hERG current was then activated by a depolarizing step ([…] for 300 ms) and repeated every 12 s. 18-MC was prepared from 10 mM methanol stock solutions. The hERG current inhibition was calculated from the average of 3 separate recordings.

[9] = system: plasma protein; experiment: Plasma protein binding; format: in vitro ADME, Mouse
From the text: (§1) There is no information on the protein binding of any of the metabolites.

[10] = system: plasma protein; experiment: Plasma protein binding; format: in vitro ADME, Rat
From the text: as §1

[11] = system: plasma protein; experiment: Plasma protein binding; format: in vitro ADME, Dog
From the text: as §1

[12] = system: plasma protein; experiment: Plasma protein binding; format: in vitro ADME, Human
From the text: as §1

[13] = Pre-clinical pharmacokinetics, all species tested; format: in vivo
Procedure: In all the species tested in pre-clinical studies, 18-MC is rapidly absorbed following oral administration with Tmax occurring in less than 0.5 hours following oral administration. After oral administration, the elimination of 18-MC is multi-compartmental. In plasma, 18-MC is highly protein bound (92% to 98%). 18-MC is also rapidly and extensively metabolized, presumably by first pass metabolism. At least […] different metabolites have been detected both in vitro and in vivo, further described below (M1-M9, P1-P3). The major metabolites (those with exposure greater than 10% of the total drug related material) appear to change with the dose and duration of dosing. Major metabolites include M2, M4, M5, M8, M9 and P2 depending on the animal species tested, and the dose and duration of dosing.
18-MC is rapidly absorbed and distributed into the brain and fat tissues in rats dosed with 40 mg/kg p.o. or i.p. The estimated volume of distribution is 8 L/kg. 18-MC levels in fat were 4.2 μM and 2.5 μM at 2 hours and 24 hours, respectively. […] On oral administration, it appears that the major metabolites are either M4 or M5, depending on the animal species tested. M4 and M5 are the primary circulating drug species because they are present at proportions greater than 18-MC. […] In the animal species tested its half-life is less than 2 hours at lower doses. […]

[14] = molecular target: CYP2D6 (Homo sapiens, UniProt P10635); details: recombinant enzyme
Sequence of CYP2D6 (P10635 whole entry): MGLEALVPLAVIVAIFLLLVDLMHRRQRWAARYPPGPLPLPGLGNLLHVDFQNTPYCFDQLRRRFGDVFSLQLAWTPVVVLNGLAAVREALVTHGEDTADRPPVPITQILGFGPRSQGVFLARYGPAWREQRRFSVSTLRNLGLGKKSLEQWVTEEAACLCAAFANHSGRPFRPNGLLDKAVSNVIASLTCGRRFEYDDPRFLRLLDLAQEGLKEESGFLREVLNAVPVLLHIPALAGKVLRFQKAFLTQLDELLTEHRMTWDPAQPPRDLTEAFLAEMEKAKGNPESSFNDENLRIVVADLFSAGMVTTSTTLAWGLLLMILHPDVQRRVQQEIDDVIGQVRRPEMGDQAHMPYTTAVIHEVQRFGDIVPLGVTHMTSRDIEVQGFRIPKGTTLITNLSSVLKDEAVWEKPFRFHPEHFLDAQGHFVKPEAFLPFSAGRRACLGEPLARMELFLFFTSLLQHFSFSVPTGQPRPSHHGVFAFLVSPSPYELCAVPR
Procedure: Control incubations were performed for each assay with appropriate positive inhibitory controls.

[15] = system: isolated rabbit Purkinje fibers; experiment: Action potential duration in rabbit cardiac Purkinje fibers
Procedure: The in vitro effect of 18-MC on the cardiac action potential was evaluated in isolated rabbit Purkinje fibers (FIG. 13). […] Fibers with resting potentials more negative than −80 mV and normal action potential morphology (APD90≥150 ms) were used in the study. Fibers were stimulated continuously at BCL of 1 second for at least 5 minutes. At the end of this period, baseline control APD rate dependence was measured using stimulus pulse trains consisting of approximately 50 pulses at BCL of 1 and 0.5 seconds. After returning to BCL of 1 second, 18-MC (or dl-sotalol) at the lowest concentration was applied for at least 20 minutes to allow equilibration, and the stimulus trains repeated. […] The average responses from the last five recorded action potentials from each stimulus train were analyzed for each test condition.
Electrophysiological recordings were performed with four nominal concentrations of 18-MC (0.3, 1, 3, and 10 μM) added sequentially to four preparations at two stimulus intervals (basic cycle lengths of 1 s and 0.5 s). The effects of 18-MC on action potential parameters were compared to time-matched vehicle control sequences.

[16] = Plasma 18-MC concentration in rats, 5-day dosing self-administration study
Procedure: Blood samples were collected from animals immediately after their cocaine self-administration at approximately 2 hours post dose in the first day of dosing (Day 0), and the last day of dosing (Day 4).

[17] = Dose Day 0, post dose (~2 h), 600 mg/kg/day

Q: Which results are given for `COCCC1CC2CN3CCc4c([nH]c5ccccc45)C(C(=O)OC)(C2)C13.Cl` (stereo not drawn) [18-MC HCl, 18-Methoxycoronaridine hydrochloride]?
A: Irwin: Increased pupil diameter, occurrence(s)/No. of males ([1]; 200 mg/kg): 1/6; Irwin: Increased touch response, occurrence(s)/No. of males ([1]; 200 mg/kg): 1/6; mean decrease in body temperature from pre-dose ([1]; 200 mg/kg p.o.): up to 1.5 °C; Irwin: Abnormal gait (walking low on limbs), occurrence(s)/No. of males ([1]; 400 mg/kg): 1/6; Irwin: Decreased alertness, occurrence(s)/No. of males (observation period, min) ([1]; 400 mg/kg): 1/6; Irwin: Increased pupil diameter, occurrence(s)/No. of males ([1]; 400 mg/kg): 1/6; mean decrease in body temperature from pre-dose ([1]; 400 mg/kg p.o.): ≤ 2.3 °C; Irwin: Abnormal gait (walking low on limbs), occurrence(s)/No. of males ([1]; 600 mg/kg): 1/6; Irwin: Diarrhea, occurrence(s)/No. of males ([1]; 600 mg/kg): 1/6; mean decrease in body temperature from pre-dose ([1]; 600 mg/kg p.o.): ≤ 2.3 °C; Irwin: Abnormal gait (waddling), occurrence(s)/No. of males (observation period, min) ([1]; 600 mg/kg, hydrochloride): 1/6 and 2/6 and 3/6 and 4/6; single dose generally well tolerated [2]: 300 to 400 mg/kg; dose at which emesis was seen [3]: 100 mg/kg; responding for cocaine ([4]; 15 minutes prior to session): significantly decreased; responding for water [4]: no effect; acute dopamine response to cocaine [5]: little effect; sensitized dopamine response to cocaine [5]: abolished the sensitized dopamine response; M50, Test, mean (SEM) ([6]; 10 mg/kg i.p.): 1.94 (0.02) log/Hz; Threshold (T0), Test, mean (SEM) ([6]; 10 mg/kg i.p.): 1.80 (0.03) log/Hz; M50, Test, mean (SEM) ([6]; 40 mg/kg i.p.): 1.95 (0.02) log/Hz; Threshold (T0), Test, mean (SEM) ([6]; 40 mg/kg i.p.): 1.85 (0.03) log/Hz; M50, Test, mean (SEM) ([6]; 56 mg/kg i.p.): 1.95 (0.02) log/Hz; Threshold (T0), Test, mean (SEM) ([6]; 56 mg/kg i.p.): 1.85 (0.02) log/Hz; effect on ICSS frequency-rate curves, M50 and threshold (T0) ([6]; 10, 40, 56 mg/kg i.p., 45 minutes before test session, hydrochloride): did not affect; also recorded: no main effect

Q: With `COCC[C@H]1CC2CN3CCc4c([nH]c5ccccc45)[C@](C(=O)OC)(C2)[C@H]13` [18-MC, 18-methoxycoronaridine] as the compound, how does the binding activity [7] read?
A: no binding activity

Q: And the IC50 [8]?
A: 1460 nM and 1600 nM

Q: And the “% Bound Mean ± SD” value ([9]; 200 ng/mL)?
A: 97.0 ± 0.208%

Q: What about the “% Bound Mean ± SD” value ([9]; 600 ng/mL) of the same compound?
A: 97.1 ± 0.058%

Q: And the “% Bound Mean ± SD” value ([9]; 5,000 ng/mL)?
A: 96.5 ± 0.071%

Q: And the “Average % Bound Mean ± SD” value ([9]; average of 3 concentrations)?
A: 96.9 ± 0.321%

Q: What about the “% Bound Mean ± SD” value ([10]; 200 ng/mL) of the same compound?
A: 92.9 ± 0.351%

Q: And the “% Bound Mean ± SD” value ([10]; 600 ng/mL)?
A: 94.9 ± 0.794%

Q: What about the “% Bound Mean ± SD” value ([10]; 5,000 ng/mL) of the same compound?
A: 90.2 ± 0.153%

Q: What about the “Average % Bound Mean ± SD” value ([10]; average of 3 concentrations) of the same compound?
A: 92.7 ± 2.36%

Q: What about the “% Bound Mean ± SD” value ([11]; 200 ng/mL) of the same compound?
A: 92.1 ± 1.78%

Q: What about the “% Bound Mean ± SD” value ([11]; 600 ng/mL) of the same compound?
A: 94.8 ± 1.42%

Q: What about the “% Bound Mean ± SD” value ([11]; 5,000 ng/mL) of the same compound?
A: 93.2 ± 0.153%

Q: And the “Average % Bound Mean ± SD” value ([11]; average of 3 concentrations)?
A: 93.4 ± 1.36%

Q: What about the “% Bound Mean ± SD” value ([12]; 200 ng/mL) of the same compound?
A: 96.8 ± 0.321%

Q: And the “% Bound Mean ± SD” value ([12]; 600 ng/mL)?
A: 97.6 ± 0.153%

Q: What about the “% Bound Mean ± SD” value ([12]; 5,000 ng/mL) of the same compound?
A: 95.2 ± 0.473%

Q: And the “Average % Bound Mean ± SD” value ([12]; average of 3 concentrations)?
A: 96.5 ± 1.22%

Q: And the half-life ([13]; animal species tested, lower doses, oral)?
A: less than 2 hours

Q: And the Tmax ([13]; oral administration, all the species tested)?
A: less than 0.5 hours

Q: And the IC50 [14]?
A: > 100000 nM

Q: What about the APD60 ([15]; 3 μM, 1 second BCL) of the same compound?
A: statistically significant (p<0.05) shortening

Q: What about the APD60 ([15]; 10 μM, 0.5 and 1 s BCL) of the same compound?
A: statistically significant (P<0.05) shortening

Q: What about the “resting membrane potential, action potential amplitude, Vmax” value ([15]; any concentration tested, two stimulus intervals) of the same compound?
A: did not induce significant changes

Q: And the “Plasma 18-MC concentration, Average” value [16, 17]?
A: 11,442 ng/mL

Q: And the “Plasma 18-MC concentration, individual animals” value [16, 17]?
A: 3,450 ng/mL and 12,600 ng/mL and 11,300 ng/mL and 13,900 ng/mL and 14,200 ng/mL and 13,200 ng/mL

Q: And the “Plasma 18-MC concentration, Average” value ([16]; Dose Day 4, post dose)?
A: 7,524 ng/mL

Q: And the “Plasma 18-MC concentration, individual animals” value ([16]; Dose Day 4, post dose)?
A: 9,030 ng/mL and 3,760 ng/mL and 8,040 ng/mL and 10,500 ng/mL and 6,290 ng/mL

Q: What about the “Plasma 18-MC concentration, Average” value ([16]; Dose Day 4, pre dose) of the same compound?
A: 2,998 ng/mL

Q: What about the “Plasma 18-MC concentration, individual animals” value ([16]; Dose Day 4, pre dose) of the same compound?
A: 3,840 ng/mL and 1,680 ng/mL and 3,020 ng/mL and 2,720 ng/mL and 3,730 ng/mL
